Our source for the Ki values is ChEMBL document CHEMBL3997836, “Leupeptazin, a highly modified tripeptide isolated from cultures of a Streptomyces sp. inhibits cathepsin K” (Bioorg Med Chem Lett, 2017).

The assay addresses T1, Cathepsin K (Homo sapiens, UniProt P43235).
T1 sequence (P43235 whole entry): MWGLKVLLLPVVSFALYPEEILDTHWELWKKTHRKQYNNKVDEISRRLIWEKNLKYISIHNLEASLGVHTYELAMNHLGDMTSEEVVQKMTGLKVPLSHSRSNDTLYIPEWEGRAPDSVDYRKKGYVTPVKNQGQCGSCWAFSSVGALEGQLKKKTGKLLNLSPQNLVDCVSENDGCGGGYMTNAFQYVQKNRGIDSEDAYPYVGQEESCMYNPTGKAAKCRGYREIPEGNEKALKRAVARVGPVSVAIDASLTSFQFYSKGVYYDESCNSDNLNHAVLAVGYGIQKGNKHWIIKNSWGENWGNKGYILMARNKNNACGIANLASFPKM
Put plainly: Competitive inhibition of recombinant human cathepsin K expressed in Pichia pastoris using Z-FR-MCA as substrate by Dixon plot method.

`CC(=O)N[C@@H](CC(C)C)C(=O)N[C@@H](CC(C)C)C(=O)N[C@H]1CCCN2C(N)=NC(=N)N[C@@H]12`: the Ki came to 44 µM.
In the case of `CC(=O)N[C@@H](CC(C)C)C(=O)N[C@@H](CC(C)C)C(=O)N[C@H](C=O)CCCNC(=N)N` [LEUPEPTIN] it was 0.024 µM.
